This is an account of results in US8076356B2, “Triazolopyridinylsulfanyl derivatives as P38 map kinase inhibitors” (Pfizer Inc., priority 2004, dated 2011).

In this test the test system is TNFα release from human peripheral blood mononuclear cells. The test can be described thus: TNFα screen. To be noted: LPS-stimulated human peripheral blood mononuclear cells, 18 hours incubation, TNFα in supernatant by ELISA, read-out: TNF IC50. Format: cell-based. The method, then:
Venous blood is collected from healthy volunteers and the mononuclear cells purified by centrifugation through Histopaque (Ficoll) cushions. TNFα production from these cells is stimulated by addition of lipopolysaccharide. After 18 hours incubation in the presence of LPS, the cell supernatant is removed and the concentration of TNFα in the supernatant determined by ELISA.

pIC50: −log10 of the molar value. Where two headings read alike, the source gives them in different places.

As to `CCc1ccccc1-c1nnc2ccc(Sc3ccccc3CNC(=O)Nc3cc(C(C)(C)C)nn3-c3cccc(OCCO)c3)cn12` [Example 104, N-{3-tert-Butyl-1-[3-(2-hydroxyethoxy)phenyl]-1H-pyrazol-5-yl}-N′-(2-{[3-(2-ethylphenyl)[1,2,4]triazolo[4,3-a]pyridin-6-yl]thio}benzyl)urea], for the setting “PBMC”, the pIC50 was 9.00.
In the case of `Cc1ccccc1-c1nnc2ccc(Sc3ccccc3CNC(=O)Nc3cc(C(C)(C)C)nn3-c3cccc(OCCO)c3)cn12` [Example 105, N-{3-tert-Butyl-1-[3-(2-hydroxyethoxy)phenyl]-1H-pyrazol-5-yl}-N′-(2-{[3-(2-methylphenyl)[1,2,4]triazolo[4,3-a]pyridin-6-yl]thio}benzyl)urea], where the note is “PBMC”, the negative-log IC50 (pIC50) was 9.22.
On to `CSC(C)(C)c1cc(NC(=O)NCc2ccccc2Sc2ccc3nnc(-c4ccccc4F)n3c2)n(-c2ccc(O)cc2)n1` [Example 109, N-(2-{[3-(2-Fluorophenyl)[1,2,4]triazolo[4,3-a]pyridin-6-yl]thio}benzyl)-N′-{1-(4-hydroxyphenyl)-3-[1-methyl-1-(methylthio)ethyl]-1H-pyrazol-5-yl}urea], for which the negative logarithm of the IC50 (pIC50) (PBMC) is 8.92.
For the compound `CSc1ccc(-c2nnc3ccc(Sc4ccccc4CNC(=O)Nc4cc(C(C)(C)C)nn4-c4cccc(O)c4)cn23)cc1` [Example 114, N-[3-tert-Butyl-1-(3-hydroxyphenyl)-1H-pyrazol-5-yl]-N′-[2-({3-[4-(methylthio)phenyl][1,2,4]triazolo[4,3-a]pyridin-6-yl}thio)benzyl]urea], under “PBMC”, the negative-log IC50 (pIC50) is 8.44.
In the case of `Cc1ccc(-n2nc(C(C)(C)C)cc2NC(=O)NCc2ccccc2Sc2ccc3nnc(-c4ccccc4OCc4ccccc4)n3c2)cc1` [Example 116], the negative logarithm of the IC50 (pIC50) is 8.49.
On to `CNC(=O)c1ccc(-n2nc(C(C)(C)C)cc2NC(=O)NCc2ccccc2Sc2ccc3nnc(C(C)C)n3c2)cc1` [Example 118], for which the pIC50 is 7.80.
In the case of `Cc1cc(OCc2ccccc2)cc(-n2nc(C(C)(C)C)cc2NC(=O)NCc2ccccc2Sc2ccc3nnc(C(C)C)n3c2)c1` [Example 124], the pIC50 was 8.34.
On to `CSC(C)(C)c1cc(NC(=O)NCc2ccccc2Sc2ccc3nnc(C(C)C)n3c2)n(-c2ccc(OCCO)cc2)n1` [Example 125], for which the pIC50 was 7.10.
For `CC(C)(C)c1cc(NC(=O)NCc2ccccc2Sc2ccc3nnc(-c4cccc(O)c4Cl)n3c2)n(-c2ccc(F)c(F)c2)n1` [Example 128], the pIC50 is 8.43.
Turning to `CCc1ccccc1-c1nnc2ccc(Sc3ccccc3CNC(=O)Nc3cc(C(C)(C)SC)nn3-c3ccc(O)cc3)cn12` [Example 132], the negative logarithm of the IC50 (pIC50) is 8.35.
The same measure, in the same setting: for `CSC(C)(C)c1cc(NC(=O)NCc2ccccc2Sc2ccc3nnc(C(C)C)n3c2)n(-c2cc(C)cc(C)c2)n1` [Example 136] the value was 9.00.
Take `CC(C)c1ccccc1-c1nnc2ccc(Sc3ccccc3CNC(=O)Nc3cc(C(C)(C)C)nn3-c3ccc(OCCO)cc3)cn12` [Example 139]: the pIC50 is 8.49.
Regarding `COc1ccccc1-c1nnc2ccc(Sc3ccccc3CNC(=O)Nc3cc(C(C)(C)SC)nn3-c3ccc(O)cc3)cn12` [Example 140], the pIC50 was 8.74.
`CC(C)(C)c1cc(NC(=O)NCc2ccccc2Sc2ccc3nnc(-c4ccccc4F)n3c2)n(-c2ccc(OCCO)cc2)n1` [Example 141]: the pIC50 was 8.85.
Turning to `CSC(C)(C)c1cc(NC(=O)NCc2ccccc2Sc2ccc3nnc(-c4ccccc4C(C)C)n3c2)n(-c2ccc(O)cc2)n1` [Example 142], the negative logarithm of the IC50 (pIC50) is 8.66.
Turning to `COc1ccccc1-c1nnc2ccc(Sc3ccccc3CNC(=O)Nc3cc(C(C)(C)C)nn3-c3ccc(O)cc3)cn12` [Example 143], the negative logarithm of the IC50 (pIC50) is 8.92.
Same read-out and setting: for `CC(C)c1ccccc1-c1nnc2ccc(Sc3ccccc3CNC(=O)Nc3cc(C(C)(C)C)nn3-c3ccc(O)cc3)cn12` [Example 144] the value was 8.92; for `COc1ccccc1-c1nnc2ccc(Sc3ccccc3CNC(=O)Nc3cc(C(C)(C)C)nn3-c3cccc(O)c3)cn12` [Example 145], 9.05.
Regarding `CSC(C)(C)c1cc(NC(=O)NCc2ccccc2Sc2ccc3nnc(-c4ccc(C)cc4O)n3c2)n(-c2cccc(C)c2)n1` [Example 151], the pIC50 was 8.85.
`CSC(C)(C)c1cc(NC(=O)NCc2ccccc2Sc2ccc3nnc(-c4cccc(Cl)c4O)n3c2)n(-c2cccc(C)c2)n1` [Example 152]: the pIC50 is 8.31.
`CSC(C)(C)c1cc(NC(=O)NCc2ccccc2Sc2ccc3nnc(-c4cccc(Cl)c4O)n3c2)n(-c2ccc(C)cc2)n1` [Example 153]: the pIC50 is 8.32.
With `CC(C)(C)c1cc(NC(=O)NCc2ccccc2Sc2ccc3nnc(-c4ccccc4SCCO)n3c2)n(-c2cccc(O)c2)n1` [Example 179], the pIC50 is 8.82.
In the case of `CC(C)c1nnc2ccc(Sc3ccccc3CNC(=O)Nc3cc(C(C)(C)C)nn3-c3ccccn3)cn12` [Example 180], the pIC50 was 7.68.
For the compound `CC(C)c1nnc2ccc(Sc3ccccc3CNC(=O)Nc3cc(C(C)(C)C)nn3-c3cccc4cnccc34)cn12` [Example 181], the negative-log IC50 (pIC50) is 8.57.
With `CCC(C)(C)c1cc(NC(=O)NCc2ccccc2Sc2ccc3nnc(-c4ccccc4O)n3c2)n(-c2cccnc2)n1` [Example 182], the negative logarithm of the IC50 (pIC50) was 9.15.

What is called pIC50 is the IC50 on a negative log10 scale, so that one unit is a factor of ten.
